In brackets after ≈: the same amount, converted by molar mass.
How the values were obtained:
[1] = tested on: MCF-7; assay: Sulforhodamine B antiproliferative assay, 72 h, normal/hypoxia, MCF-7; type: cell-based, human; conditions: for IC50 [μg/ml] MCF-7 hypoxia / IC50 [μg/ml] MCF-7 normal / IC50: 72 hours exposition; for IC50: Homo sapiens, MCF7
Protocol: (§1) Anticancer activity of selected compounds of invention, PDI A3-inhibitors has been also tested in vitro in antiproliferative assay in normoxic and hypoxic conditions as well in estrogen-stimulated cancer cells. In the experiment, cells were seeded on 96-well plates (Sarstedt, Germany) in appropriate culture medium at a density of 10^5 cells/mL 24 h before adding the tested compounds. Cells were treated with each compound in four concentrations in the range 0.1-100 μg/mL. […] After 72 h of compound treatment at 37° C., 5% CO2 humid atmosphere and in wo different oxygen level conditions: 21%—normal and <1%—hypoxia. In some experiments the MDA-MB-231 and MCF-7 cells were seeded with or without 200 nM estradiol and after 24 h the tested compounds were added. A previously described sulforhodamine B antiproliferative assay was used with minor modifications (Skehan P et al., 1990). Briefly, cells were fixed with 50 μL/well of 50% (w/v) trichloroacetic acid (Avantor Performance Materials, Gliwice, Poland). After 1 h incubation, plates were washed several times with tap water and 50 μL of 0.4% (w/v) solution of sulforhodamine B (Sigma-Aldrich, Germany) in 1% (v/v) acetic acid (Avantor Performance Materials, Gliwice, Poland) was added to each well. After 30 min incubation at room temperature, unbound dye was washed out with 1% (v/v) acetic acid, whereas bound dye was solubilized with 10 mM unbuffered TRIS (Avantor Performance Materials, Gliwice, Poland) solution. The entire procedure was performed using a BioTek EL-406 washing station (BioTek Instruments, USA). After additional 30 min, absorbance was read using a Biotek Hybrid H4 reader (BioTek Instruments, USA) at 540 nm wavelength. MTT assay was used alternatively for HL-60 cell line and in the experiment in which estrogens are added (specified in the table legend). Absorbance was measured using a Biotek Hybrid H4 reader at 570 nm wavelength for MTT assay.
(§2) Compounds at each concentration were tested in triplicate in a single experiment and each experiment was repeated at least three times independently. Results are presented as mean IC50±SD.

[2] = tested on: MDA-MB-231; assay: Sulforhodamine B antiproliferative assay, 72 h, normal/hypoxia, MDA-MB-231; type: cell-based, human; conditions: 72 hours exposition; for IC50: Homo sapiens, MDA-MB-231
Protocol: as §1, §2

[3] = tested on: CaCo-2; assay: Sulforhodamine B antiproliferative assay, 72 h, Caco-2; type: cell-based, human; conditions: normal (21% of oxygen), 72 hours exposition
Protocol: In the experiment, cells were seeded on 96-well plates (Sarstedt, Germany) in appropriate culture medium at a density of 10^5 cells/mL 24 h before adding the tested compounds. Cells were treated with each compound in four concentrations in the range 0.1-100 μg/mL. […] Briefly, cells were fixed with 50 μL/well of 50% (w/v) trichloroacetic acid (Avantor Performance Materials, Gliwice, Poland). After 1 h incubation, plates were washed several times with tap water and 50 μL of 0.4% (w/v) solution of sulforhodamine B (Sigma-Aldrich, Germany) in 1% (v/v) acetic acid (Avantor Performance Materials, Gliwice, Poland) was added to each well. After 30 min incubation at room temperature, unbound dye was washed out with 1% (v/v) acetic acid, whereas bound dye was solubilized with 10 mM unbuffered TRIS (Avantor Performance Materials, Gliwice, Poland) solution. […] After additional 30 min, absorbance was read using a Biotek Hybrid H4 reader (BioTek Instruments, USA) at 540 nm wavelength.

[4] = tested on: HT-29; assay: Sulforhodamine B antiproliferative assay, 72 h, HT-29; type: cell-based, human; conditions: normal (21% of oxygen), 72 hours exposition
Protocol: as §1, §2

[5] = tested on: CaCo-2; assay: MTT antiproliferative assay, 48 h, Caco-2; type: cell-based, human
Protocol: (§3) Anticancer activity of compounds of invention, PDI A3-inhibitors has been tested in vitro in classical antiproliferative assay in various cancer cells lines. Monolayer tumor cell lines MDA-MB-231 (human mammary breast adenocarcinoma), MCF-7 (human breast adenocarcinoma, estrogen-positive), HT-1080 (human fibrosarcoma) and Caco-2 (human colon adenocarcinoma) were cultured in standard medium DMEM (Dulbecco's modified Eagle's medium) (“Sigma”) supplemented with 10% foetal bovine serum (“Sigma”). About 2000-4000 cells per well (depending on line nature) were placed in 96-well plates and after 24 h compounds were added to the wells. Untreated cells were used as a control. The plates were incubated for 48 h, 37° C., 5% CO2. The number of surviving cells was determined using 3-(4,5-dimethylthiazol-2-yl)-2,5-diphenyltetrazolinium bromide (MTT). MTT-test: after incubating culture medium was removed and 200 μL fresh medium with 20 μL MTT (2 mg/mL in HBSS) was added in each well of the plate. After incubation (3 hr., 37° C., 5% CO2), the medium with MTT was removed and 200 μL DMSO were added at once to each sample. The samples were tested at 540 nm on Thermo Scientific Multiskan EX microplate photometer. The half-maximal inhibitory concentration (IC50) of each compound was calculated using Graph Pad Prism® 3.0.

[6] = tested on: MDA-MB-231; assay: MTT antiproliferative assay, 72 h, with or without estradiol, MDA-MB-231; type: cell-based, human; conditions: Homo sapiens, MDA-MB-231, 72 hours exposition, MTT
Protocol: as §1, §2

[7] = tested on: MCF-7; assay: MTT antiproliferative assay, 72 h, with or without estradiol, MCF-7; type: cell-based, human; conditions: Homo sapiens, MCF7, 72 hours exposition, MTT
Protocol: as §1, §2

[8] = tested on: HT-29; assay: MTT antiproliferative assay, 72 h, HT-29; type: cell-based, human; conditions: Homo sapiens, HT-29, 72 hours exposition, read-out: IC50 [μg/ml] HT-29 normal
Protocol: as §1, with “A previously described sulforhodamine B antiproliferative assay was used with minor modifications (Skehan P et al., 1990).” left out, “MTT assay was used alternatively for HL-60 cell line and in the experiment in which estrogens are added (specified in the table legend).” left out
as §2

[9] = tested on: HL-60; assay: MTT antiproliferative assay, 72 h, HL-60; type: cell-based, human; conditions: Homo sapiens, HL-60, 72 hours exposition, read-out: IC50 [μg/ml] HL-60 normal
Protocol: as §1, §2

[10] = tested on: MCF-10A; assay: Selectivity index MCF-10A versus MCF-7; type: cell-based; conditions: 72 hours exposition
Protocol: as §1
Compounds at each concentration were tested in triplicate in a single experiment and each experiment was repeated at least three times independently. […]

[11] = tested on: MDA-MB-231; assay: MTT antiproliferative assay, 48 h, MDA-MB-231; type: cell-based, human; conditions: for IC50: Homo sapiens, MDA-MB-231, 48-hour exposition, read-out: Cytotoxicity, IC50, μM MDA-MB-231
Protocol: as §3

[12] = target: T1, PDI A3 (Homo sapiens, UniProt P30101); assay: PDI A3 inhibition, insulin turbidimetric assay; type: biochemical; conditions: 10 ug/ml PDI A3, incubated 60 min at 37° C., turbidity at 650 nm; read-out: Inhibition of PDI A3 (EC 50)
T1 construct: purchased Mybiosource; host or cells: E. coli
T1 sequence (P30101 25-505): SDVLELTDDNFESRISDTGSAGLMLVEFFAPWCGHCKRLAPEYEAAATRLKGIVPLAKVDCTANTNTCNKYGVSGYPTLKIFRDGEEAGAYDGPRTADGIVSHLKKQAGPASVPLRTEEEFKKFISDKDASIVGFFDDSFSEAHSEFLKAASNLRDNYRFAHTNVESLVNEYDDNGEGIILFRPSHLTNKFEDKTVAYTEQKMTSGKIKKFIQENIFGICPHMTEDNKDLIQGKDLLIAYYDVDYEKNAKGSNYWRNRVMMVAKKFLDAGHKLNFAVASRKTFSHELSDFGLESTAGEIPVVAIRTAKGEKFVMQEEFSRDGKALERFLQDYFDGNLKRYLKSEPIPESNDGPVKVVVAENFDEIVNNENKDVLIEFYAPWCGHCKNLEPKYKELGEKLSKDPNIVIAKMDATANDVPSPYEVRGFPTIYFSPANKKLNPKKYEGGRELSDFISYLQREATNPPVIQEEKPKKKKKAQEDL
Protocol: The inhibitory effects compounds of invention on activity of PDIA3 was assess based on the insulin turbidimetric assay. Enzymatic activity of PDIA3 was confirmed by measuring the turbidity increase at 650 nm due to insulin reduction. The assay mixture was prepared by addition 10 ug/ml PDI A3 (E. coli recombinant protein; Mybiosource), […] phosphate buffer (pH7.6), 1 mM EDTA, 0.087 mM DTT and with or without tested compound and was incubated for 60 min, at 37° C. Reaction was started by addition of insulin and DTT. Final concentration of insulin and DTT in assay mixture were 0.15 mMv and 0.174 mMv, respectively. Turbidity was detected at 650 nm against reference samples without PDJs. The measurements were performed at 650 nm using 120-s recordings.

[13] = tested on: MCF-7; assay: MTT antiproliferative assay, 48 h, MCF-7; type: cell-based, human; conditions: 48-hour exposition
Protocol: as §3

## COc1ccc(N2C(=O)/C(=C\c3ccc([N+](=O)[O-])s3)SC2=S)cc1 [CCF642]
[1]; hypoxia (<1% of oxygen)
  IC50 [μg/ml] MCF-7 hypoxia: 0.6 ± 0.6 µg/mL (≈ 1.59 µM)
[1]; normal (21% of oxygen)
  IC50 [μg/ml] MCF-7 normal: 0.7 ± 0.5 µg/mL (≈ 1.85 µM)
[2]; hypoxia (<1% of oxygen)
  IC50 [μg/ml] MDA-MB-231 hypoxia: 0.3 ± 0.2 µg/mL (≈ 0.793 µM)
[2]; normal (21% of oxygen)
  IC50 [μg/ml] MDA-MB-231 normal: 0.3 ± 0.1 µg/mL (≈ 0.793 µM)
[3]
  IC50 [μg/ml] Caco-2 normal: 0.4 ± 0.1 µg/mL (≈ 1.06 µM)
[4]
  IC50 [μg/ml] HT-29 normal: 0.4 ± 0.05 µg/mL (≈ 1.06 µM)

## N.N.[Cl][Pt][Cl] [Cisplatin]
[1]; hypoxia (<1% of oxygen)
  IC50 [μg/ml] MCF-7 hypoxia: 1.3 ± 0.5 µg/mL
[1]; normal (21% of oxygen)
  IC50 [μg/ml] MCF-7 normal: 1.8 ± 0.3 µg/mL
[2]; hypoxia (<1% of oxygen)
  IC50 [μg/ml] MDA-MB-231 hypoxia: 3.1 ± 0.9 µg/mL
[2]; normal (21% of oxygen)
  IC50 [μg/ml] MDA-MB-231 normal: 3.2 ± 0.5 µg/mL
[4]
  IC50 [μg/ml] HT-29 normal: 2.82 ± 0.6 µg/mL

## NC(=O)C1CN1S(=O)(=O)c1ccc([N+](=O)[O-])cc1 (stereo not drawn) [Compound C-3216, 1-(4-Nitrophenyl)sulfonylaziridine-2-carboxamide]
[1]; hypoxia (<1% of oxygen), read-out: IC50 [μg/ml] MCF-7 hypoxia
  IC50: 3.6 ± 0.3 µg/mL (≈ 13.3 µM)
[1]; normal (21% of oxygen), read-out: IC50 [μg/ml] MCF-7 normal
  IC50: 3.7 ± 0.4 µg/mL (≈ 13.6 µM)
[1]; MCF-7 and MDA-MB-231, Table 3
  Antiproliferative effect, normoxic versus hypoxic conditions: comparable
[2]; hypoxia (<1% of oxygen), read-out: IC50 [μg/ml] MDA-MB-231 hypoxia
  IC50: 6.2 ± 3.7 µg/mL (≈ 22.9 µM)
[2]; normal (21% of oxygen), read-out: IC50 [μg/ml] MDA-MB-231 normal
  IC50: 5 ± 1.4 µg/mL (≈ 18.4 µM)
[3]; Homo sapiens, Caco-2, read-out: IC50 [μg/ml] Caco-2 normal
  IC50: 4.5 ± 0.8 µg/mL (≈ 16.6 µM)
[4]; Homo sapiens, HT-29, read-out: IC50 [μg/ml] HT-29 normal
  IC50: 5.6 ± 0.9 µg/mL (≈ 20.6 µM)

## COC(=O)C1CN1S(=O)(=O)c1ccc2cc(OC)ccc2c1 (stereo not drawn) [Compound C-3327, Methyl 1-[(6-methoxy-2-naphthyl)sulfonyl]aziridine-2-carboxylate]
[5]; Homo sapiens, Caco-2, 48-hour exposition, read-out: Cytotoxicity, IC50, μM CaCo-2
  IC50: 150 ± 10 µM

## CN(C)C(=O)C1CN1S(=O)(=O)c1ccc2ccccc2c1 (stereo not drawn) [Compound C-3373, N,N-Dimethyl-1-(2-naphthylsulfonyl)aziridine-2-carboxamide]
[6]; not pretreated with estradiol, read-out: IC50 [μg/ml] MDA-MB-231 normal
  IC50: 3.2 ± 0.1 µg/mL (≈ 10.5 µM)
[6]; pretreated with 200 nM estradiol, read-out: IC50 [μg/ml] MDA-MB-231 +estradiol
  IC50: 3.2 ± 0.3 µg/mL (≈ 10.5 µM)
[7]; not pretreated with estradiol, read-out: IC50 [μg/ml] MCF-7 normal
  IC50: 3.3 ± 0.1 µg/mL (≈ 10.8 µM)
[7]; pretreated with 200 nM estradiol, read-out: IC50 [μg/ml] MCF-7 +estradiol
  IC50: 2.6 ± 0.5 µg/mL (≈ 8.54 µM)
[8]
  IC50: 33.4 ± 1.1 µg/mL (≈ 110 µM)
[9]
  IC50: 3.1 ± 0.1 µg/mL (≈ 10.2 µM)
[10]
  Selectivity index (SI): IC50 of MCF-10A/IC50 of MCF-7: 1.20

## COC(=O)C1CN1S(=O)(=O)c1ccc2cc(N(C)C)ccc2c1 (stereo not drawn) [Compound C-3397, Methyl 1-[[6-(dimethylamino)-2-naphthyl]sulfonyl]aziridine-2-carboxylate]
[11]
  IC50: 38 ± 2 µM

## CN(C)c1ccc2c(S(=O)(=O)N3CC3C(N)=O)cccc2c1 (stereo not drawn) [Compound C-3459, 1-[[6-(Dimethylamino)-1-naphthyl]sulfonyl]aziridine-2-carboxamide]
[12]
  EC50: 130 µM
[5]; 48-hour exposition
  Cytotoxicity, IC50, μM CaCo-2: n.e.
[11]; 48-hour exposition
  Cytotoxicity, IC50, μM MDA-MB-231: n.e.
[13]
  Cytotoxicity, IC50, μM MCF-7: n.e.
other
  melting point: 197 to 199 °C

## CCCCCCc1ccc(S(=O)(=O)N2CC2C(=O)N2CCOCC2)cc1 (stereo not drawn) [Compound C-3517, [1-(4-Hexylphenyl)sulfonylaziridin-2-yl]-morpholino-methanone]
[11]
  IC50: 12 ± 1 µM

## O=C(C1CC1)N1CCN(Cn2sc3ccccc3c2=O)CC1 [LOC14]
[1]; hypoxia (<1% of oxygen)
  IC50 [μg/ml] MCF-7 hypoxia: 3.9 ± 0.3 µg/mL (≈ 12.3 µM)
[1]; normal (21% of oxygen)
  IC50 [μg/ml] MCF-7 normal: 4.4 ± 0.9 µg/mL (≈ 13.9 µM)
[2]; hypoxia (<1% of oxygen)
  IC50 [μg/ml] MDA-MB-231 hypoxia: 2.6 ± 0.5 µg/mL (≈ 8.19 µM)
[2]; normal (21% of oxygen)
  IC50 [μg/ml] MDA-MB-231 normal: 2.8 ± 0.4 µg/mL (≈ 8.82 µM)
[3]
  IC50 [μg/ml] Caco-2 normal: 9.1 ± 3.4 µg/mL (≈ 28.7 µM)
[4]
  IC50 [μg/ml] HT-29 normal: 12.6 ± 8.4 µg/mL (≈ 39.7 µM)
